Experimental data published in ChEMBL document CHEMBL1149922, “Novel tryptophan dioxygenase inhibitors and combined tryptophan dioxygenase/5-HT reuptake inhibitors” (Bioorg Med Chem Lett, 1996).

Experiments:
Rattus norvegicus = species: Rattus norvegicus; assay: Inhibition of 5-HT reuptake in rat […] was measured; assay type: functional, organism-based
[1] = biological target: Tryptophan 2,3-dioxygenase (Rattus norvegicus, UniProt P21643); assay: Compound was tested for inhibition of Tryptophan dioxygenase (TDO) from rat liver
Chain of Tryptophan 2,3-dioxygenase (P21643 whole entry): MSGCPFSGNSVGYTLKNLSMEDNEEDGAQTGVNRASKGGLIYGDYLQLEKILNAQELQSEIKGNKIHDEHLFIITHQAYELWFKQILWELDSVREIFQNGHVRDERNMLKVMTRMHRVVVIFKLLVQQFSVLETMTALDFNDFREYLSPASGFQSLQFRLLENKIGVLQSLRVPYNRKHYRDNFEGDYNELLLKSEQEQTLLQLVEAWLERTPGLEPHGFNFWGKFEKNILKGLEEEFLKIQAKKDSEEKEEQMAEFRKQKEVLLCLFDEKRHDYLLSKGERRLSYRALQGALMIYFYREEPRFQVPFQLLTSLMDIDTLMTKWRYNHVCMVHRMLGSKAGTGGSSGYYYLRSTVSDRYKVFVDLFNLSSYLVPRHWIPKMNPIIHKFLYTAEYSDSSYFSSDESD

SMILES | IC50 (Rattus norvegicus) | Ki [1]
C(=C\c1c[nH]c2ccccc12)/c1ccncc1 | 1.5 µM | 0.03 µM
Fc1ccc2[nH]cc(/C=C/c3cccnc3)c2c1 | – | 0.05 µM
C(=C\c1c[nH]c2ccccc12)/c1ccccn1 | – | 0.1 µM
Fc1ccc2[nH]cc(/C=C/c3ccncc3)c2c1 | – | 0.04 µM
Fc1ccc2c(/C=C/c3cccnc3)c[nH]c2c1 | – | 0.03 µM
Fc1ccc2c(/C=C/c3ccncc3)c[nH]c2c1 | 0.9 µM | 0.03 µM
C(=C\c1c[nH]c2ccccc12)/c1cccnc1 | – | 0.04 µM
